In ChEMBL document CHEMBL3632467, “Tyrokeradines G and H, new bromotyrosine alkaloids from an Okinawan Verongid sponge” (Bioorg Med Chem Lett, 2015):
Values after ≈ are worked out from the molar mass of the structure shown.

Legend:
Staphylococcus aureus = test: Antibacterial activity against Staphylococcus aureus; format: functional
Escherichia coli = test: Antibacterial activity against Escherichia coli; format: functional
Bacillus subtilis = test: Antibacterial activity against Bacillus subtilis; format: functional
Micrococcus luteus = test: Antibacterial activity against Micrococcus luteus; format: functional
Aspergillus niger = test: Antifungal activity against Aspergillus niger; format: functional, organism-based
[1] = test system: Trichophyton mentagrophytes; test: Antifungal activity against Trichophyton mentagrophytes; format: functional, organism-based
Candida albicans = test: Antifungal activity against Candida albicans; format: functional, organism-based
Cryptococcus neoformans = test: Antifungal activity against Cryptococcus neoformans; format: functional, organism-based

| MIC (Staphylococcus aureus) [µg/mL] | MIC (Escherichia coli) [µg/mL] | MIC (Bacillus subtilis) [µg/mL] | MIC (Micrococcus luteus) [µg/mL] | IC50 (Aspergillus niger) [µg/mL] | IC50 [1] [µg/mL] | IC50 (Candida albicans) [µg/mL] | IC50 (Cryptococcus neoformans) [µg/mL] | Compound |
| --- | --- | --- | --- | --- | --- | --- | --- | --- |
| > 32 | > 32 | > 32 | > 32 | 32 (≈ 66.5 µM) | > 32 | > 32 | 16 (≈ 33.3 µM) | NCCCOc1c(Br)cc(C/C(=N\O)C(=O)NCCC(=O)O)cc1Br |
| > 32 | > 32 | > 32 | > 32 | 32 | > 32 | > 32 | > 32 | O=C(O)/C(Cc1cc(Br)c(OCCC[n+]2ccccc2)c(Br)c1)=N/O |
